In patent US20240011070A1, “METHODS AND COMPOSITIONS FOR PROTEASE REPORTER ASSAYS AND MODULATORS” (712 North Inc., priority 2020, published 2024):
“Also recorded” adds a separate entry of the source. Read-outs that look alike come from different tables or passages of the source.

Assays:
OMA1 protease [1] = target: T1, OMA1 protease (Homo sapiens, UniProt Q96E52); test: Rep #01 luciferase reporter assay in Hek293T cells; conditions: for bioluminescence of reporter #01 (mitochondrial toxicity): Hek293T cells exposed 30 minutes
T1 sequence (Q96E52 144-524): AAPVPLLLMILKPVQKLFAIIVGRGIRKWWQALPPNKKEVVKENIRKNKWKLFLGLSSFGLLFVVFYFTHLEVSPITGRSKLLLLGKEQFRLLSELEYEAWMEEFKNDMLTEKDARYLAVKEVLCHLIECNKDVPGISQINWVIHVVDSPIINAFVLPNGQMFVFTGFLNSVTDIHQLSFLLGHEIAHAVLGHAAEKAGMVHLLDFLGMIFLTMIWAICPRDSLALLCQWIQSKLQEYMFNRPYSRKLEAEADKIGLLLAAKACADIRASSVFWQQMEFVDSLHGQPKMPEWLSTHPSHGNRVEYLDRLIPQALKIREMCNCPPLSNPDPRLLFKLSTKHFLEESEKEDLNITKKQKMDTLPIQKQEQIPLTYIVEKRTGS
Description: Example 1 provides a nonlimiting example of generation and use of a reporter of present invention and illustrates its function. To this end, generation and use of reporter gene #01 (SEQ ID NO: 01) and reporter gene #15 (SEQ ID NO: 15) are described and their function compared to each other. The general design of a reporter of present invention is illustrated in FIG. 1A and its working principle in FIG. 1B. A reporter in general, and reporter gene #01 and reporter gene #15 in particular, can be generated as follows. DNA sequences of a reporter may be codon-optimized in silico or by any other way for expression in a suitable host. DNA sequences of reporter genes #01 and #15 were codon-optimized for expression in humans (SEQ ID NO: 02 and SEQ ID NO: 16, respectively). The (optimized) sequences were synthesized and cloned into a pcDNA3.1 expression vector under the control of a CMV promotor (see FIG. 1 for an illustration of such vector). Of course, an expression system and a host should match for best results. The host in this example were Hek293T cells, which were maintained under standard culture conditions in DMEM with 10% Fetal Bovine Serum and 1% Pen/Strep. For an experiment, Hek293T cells were seeded in opaque white tissue-culture treated 96-well plates at 80% confluency and transfected with vectors carrying reporter gene #01 and reporter gene #15 and 24 hours later incubated for 30 minutes at 37° C. in OptiMEM or in OptiMEM with 10 μM CCCP. After 30 minutes, the OptiMEM cell-culture media was replaced with luciferase substrate (furimazine, Promega) diluted 1:100 in OptiMEM, and bioluminescence was measured with a Fluoroskan Ascent FL (Thermo Scientific) using a 517 nm single-pass filter and 200 milliseconds integration time. […]
Example 5 illustrates how mitochondrial toxicity can be measured with reporter and assays of present invention. […] Hek293T cells expressing reporter #01 and #15 were exposed to CCCP, tipranavir and sorafenib (in OptiMEM) for 30 minutes before the medium was replaced with furimazine (1:100), and bioluminescence measured.

L-OPA1 = test: OPA1 hydrolysis in Hek293T cells by Western blot; format: cell-based; conditions: 30 minutes
Description: (§1) OPA1 hydrolysis can be monitored by Western blotting. […] The predicted size of full-length Luke-S1 is 31.8 kDa.

OMA1 protease [2] = target: T1, OMA1 protease; test: Reporter hydrolysis in Hek293T reporter cells by Western blot; format: cell-based; set-up: The OMA 1 enzyme is dormant under physiological cell culture conditions in these cells; endogenous in cells; conditions: for Luke-S1 reporter cleavage in Western blots / Luke-TEV reporter cleavage in Western blots: 3 μM CCCP or 100 nM valinomycin
Experimental: For this example, transfected cells were selected by puromycin. […] […] If reporter #15 indeed is cleaved by OMA1, then phenanthroline should prevent this at least to a certain extend by inhibiting OMA1 and accordingly preserving the signal. Hek293T cells were transfected with reporter gene #15 as described in the preceding example. After 24 hours, the transfected cells were incubated with 500 μM phenanthroline in OptiMEM. After 1 hour of pretreatment, CCCP in OptiMEM/phenanthroline was added to a final concentration of 10 μM CCCP and cells incubated for another 30 minutes at 37° C. After 30 minutes, the medium was replaced with furimazine (1:100 in OptiMEM), and bioluminescence measured as described in Example 1.
as §1

OMA1 protease [3] = target: T1, OMA1 protease; test: cell-based
Description: Example 1 provides a nonlimiting example of generation and use of a reporter of present invention and illustrates its function. To this end, generation and use of reporter gene #01 (SEQ ID NO: 01) and reporter gene #15 (SEQ ID NO: 15) are described and their function compared to each other. The general design of a reporter of present invention is illustrated in FIG. 1A and its working principle in FIG. 1B. A reporter in general, and reporter gene #01 and reporter gene #15 in particular, can be generated as follows. DNA sequences of a reporter may be codon-optimized in silico or by any other way for expression in a suitable host. DNA sequences of reporter genes #01 and #15 were codon-optimized for expression in humans (SEQ ID NO: 02 and SEQ ID NO: 16, respectively). The (optimized) sequences were synthesized and cloned into a pcDNA3.1 expression vector under the control of a CMV promotor (see FIG. 1 for an illustration of such vector). Of course, an expression system and a host should match for best results. The host in this example were Hek293T cells, which were maintained under standard culture conditions in DMEM with 10% Fetal Bovine Serum and 1% Pen/Strep. For an experiment, Hek293T cells were seeded in opaque white tissue-culture treated 96-well plates at 80% confluency and transfected with vectors carrying reporter gene #01 and reporter gene #15 and 24 hours later incubated for 30 minutes at 37° C. in OptiMEM or in OptiMEM with 10 μM CCCP. After 30 minutes, the OptiMEM cell-culture media was replaced with luciferase substrate (furimazine, Promega) diluted 1:100 in OptiMEM, and bioluminescence was measured with a Fluoroskan Ascent FL (Thermo Scientific) using a 517 nm single-pass filter and 200 milliseconds integration time. […] Reporter #01 comprises a large part of OPA1's amino-terminus as mitochondrial targeting sequence, which is cleaved by the mitochondrial processing peptidase upon mitochondrial import (see Example 2). Reporter #15 was initially envisioned as a control for reporter #01. Reporter #15 therefore lacks the first 66 amino acids of reporter #01 believed to be essential for mitochondrial import.
Example 5 illustrates how mitochondrial toxicity can be measured with reporter and assays of present invention. The OMA1-OPA1 pathway basically serves as a “canary-in-the-coalmine” for a mitochondrial deterioration. […] Hek293T cells expressing reporter #01 and #15 were exposed to CCCP, tipranavir and sorafenib (in OptiMEM) for 30 minutes before the medium was replaced with furimazine (1:100), and bioluminescence measured.

OMA1 protease [4] = target: T1, OMA1 protease; test: Rep #15 / Luke-S1 assay for OMA1 inhibitors (preincubation with test compound, then OMA1 activator); format: cell-based; set-up: The OMA 1 enzyme is dormant under physiological cell culture conditions in these cells; endogenous in cells; conditions: 500 μM phenanthroline 1 hour, then 10 μM CCCP 30 minutes
Experimental: Example 2 refers to FIG. 4 and illustrates hydrolysis of reporter #01 and reporter #15. For this example, transfected cells were selected by puromycin. Reporter cells were exposed for 30 minutes to 10 μM CCCP before being harvested in RIPA buffer and subjected to 12% SDS-PAGE followed by Western-blotting. […] Full-length reporter #01 has a predicted size of 39.6 kDa but was not detected in Western blots. […] At the same time, reporter #15 is not processed upon import, but migrated at its expected size of 31.9 kDa. (Example 7 establishes mitochondrial import by showing co-migration of reporter #15 with OPA1 and OMA1 in mitochondria-enriched fractions.) Reporter #15 appears to be more abundant and stable, which may explain its better performance. […] This provides additional evidence that reporter #15 is indeed localized in mitochondria where it is recognized and hydrolyzed by OMA1. […] Therefore, phenanthroline was used as a positive control in the reporter assay. If reporter #15 indeed is cleaved by OMA1, then phenanthroline should prevent this at least to a certain extend by inhibiting OMA1 and accordingly preserving the signal. Hek293T cells were transfected with reporter gene #15 as described in the preceding example. […] After 30 minutes, the medium was replaced with furimazine (1:100 in OptiMEM), and bioluminescence measured as described in Example 1. […]

NanoLuc luciferase = target: T2, NanoLuc luciferase (Oplophorus gracilirostris, UniProt Q9GV45, A31E/A60N/A81I/F95D/I117V/K70R/L54V/L99Q/M102K/N193R/P142E/Q151K/Q38R/Q45L/V71I/Y165I); test: Luke (native NanoLuc) control cell assay in Hek293T cells; format: cell-based
T2 construct: expressed in transfected cells; host or cells: 'Luke' cells
T2 sequence (Q9GV45 with tags, fused parts or gaps with the stated changes): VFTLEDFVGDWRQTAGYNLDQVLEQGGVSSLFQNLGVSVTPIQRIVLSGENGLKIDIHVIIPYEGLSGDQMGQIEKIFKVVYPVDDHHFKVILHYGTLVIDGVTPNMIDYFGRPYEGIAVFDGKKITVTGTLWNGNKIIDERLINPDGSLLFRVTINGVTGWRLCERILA
Description: Example 6 refers to FIG. 11 and introduces the Luke-S1 reporter cell line, which is based on a modified NanoLuc complementation system (Dixon, et al. ACS Chem Biol (2016) 11(2): 400-8). […] Luke-S1 is targeted to the mitochondrial inner membrane by an 86 amino acid portion of OPA1's c-terminus with the protein sequence SEQ ID NO: 27 and the DNA sequence SEQ ID NO:28. A reporter in which the S1 site was replaced by a TEV cleavage site (referred to as ‘Luke-TEV’) and the native NanoLuc enzyme (referred to as ‘Luke’) served as controls.

OMA1 protease [5] = target: OMA1 protease (Mus musculus, UniProt Q9D8H7); conditions: Neuro2A cells
Chain of OMA1 protease (Mus musculus, UniProt Q9D8H7) (Q9D8H7 140-521): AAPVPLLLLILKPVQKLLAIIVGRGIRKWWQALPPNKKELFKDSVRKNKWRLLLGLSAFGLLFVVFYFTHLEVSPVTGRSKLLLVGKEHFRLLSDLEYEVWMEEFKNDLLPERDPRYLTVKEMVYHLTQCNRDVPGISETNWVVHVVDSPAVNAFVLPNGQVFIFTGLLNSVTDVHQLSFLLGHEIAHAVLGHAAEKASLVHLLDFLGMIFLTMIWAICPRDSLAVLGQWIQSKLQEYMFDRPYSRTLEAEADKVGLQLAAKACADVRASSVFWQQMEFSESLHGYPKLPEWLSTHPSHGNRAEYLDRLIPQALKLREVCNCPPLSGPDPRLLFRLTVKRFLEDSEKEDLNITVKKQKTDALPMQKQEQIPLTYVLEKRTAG
Description: In this example, the S1-cleavage site of reporter #15 was replaced with a TEV-cleavage site (see also Example 6). Neuro2A cells were transfected with reporter #15-S1 and reporter #15-TEV and selected by puromycin. […] FIG. 7 provides an overview of the arrangement of elements of different reporter genes, which comprise inter alia the amino acid sequences of SEQ ID NO: 01 (Rep #01), SEQ ID NO: 03 (Rep #04), SEQ ID NO: 09 (Rep #08), SEQ ID NO: 13 (Rep #10), and SEQ ID NO: 15 (Rep #15).

OMA1 protease [6] = target: T1, OMA1 protease; test: Luke-TEV (TEV site instead of S1) reporter assay in Hek293T cells; format: cell-based; set-up: The OMA 1 enzyme is dormant under physiological cell culture conditions in these cells; endogenous in cells

## N#CC(C#N)=NNc1cccc(Cl)c1 [CCCP, carbonyl cyanide m-chlorophenyl hydrazone]
OMA1 protease [1]; 10 μM CCCP, 30 minutes
  bioluminescence signal of reporter #01: significantly reduced
OMA1 protease [1]
  bioluminescence of reporter #01 (mitochondrial toxicity): significantly reduced bioluminescence
L-OPA1; 3 μM CCCP
  OPA1 hydrolysis in Western blots: complete disappearance of L-OPA1 isoforms; also recorded: complete L-OPA1 proteolysis
OMA1 protease [2]
  Luke-S1 reporter cleavage in Western blots: induced cleavage of the Luke-S1 reporter
  Luke-TEV reporter cleavage in Western blots: cleaved
OMA1 protease [2]; 10 μM CCCP, 30 minutes
  processing of reporter #01 in Western blot: led to processing
  processing of reporter #15 in Western blot: led to processing

## COC1=CC(=O)O[C@@H](/C=C/c2ccccc2)C1 [kavain, Kavain]
OMA1 protease [3]
  EC50: 14 µM

## c1cnc2c(c1)ccc1cccnc12 [phenanthroline]
OMA1 protease [4]
  bioluminescence signal of reporter #15 after pretreatment: prevented reporter #15 deactivation and maintained the bioluminescence signal; also recorded: largely preserved

## CCC[C@@]1(CCc2ccccc2)CC(O)=C([C@H](CC)c2cccc(NS(=O)(=O)c3ccc(C(F)(F)F)cn3)c2)C(=O)O1 [tipranavir]
OMA1 protease [3]
  EC50: 9 µM
OMA1 protease [1]
  bioluminescence of reporter #01 (mitochondrial toxicity): deactivated; also recorded: significantly reduced bioluminescence

## CC(C)[C@@H]1NC(=O)[C@H](C)OC(=O)[C@@H](C(C)C)NC(=O)[C@@H](C(C)C)OC(=O)[C@H](C(C)C)NC(=O)[C@H](C)OC(=O)[C@@H](C(C)C)NC(=O)[C@@H](C(C)C)OC(=O)[C@H](C(C)C)NC(=O)[C@H](C)OC(=O)[C@@H](C(C)C)NC(=O)[C@@H](C(C)C)OC1=O [valinomycin]
OMA1 protease [3]
  EC50: 0.0176 µM
OMA1 protease [3]; 100 nM valinomycin, 30 minutes
  Luke-S1 signal, cells transfected with OMA1 siRNA: no significant signal reduction
  Luke-S1 signal, cells transfected with control siRNA: significant signal reduction
OMA1 protease [3]; Luke-S1, 100 nM valinomycin added with luciferase substrate, 25 minutes
  real-time bioluminescence versus cells without valinomycin: marked signal reduction from the start of the measurement
OMA1 protease [3]; valinomycin treated controls of the cancer drug screen, untreated = 100%
  signal intensity normalized to untreated cells: 18.5%
NanoLuc luciferase; Luke, 100 nM valinomycin added with luciferase substrate, after 10 minutes
  real-time bioluminescence versus cells without valinomycin: no notable differences
NanoLuc luciferase; dose-response, 30 minutes
  effect on Luke bioluminescence: no effects
OMA1 protease [5]; reporter #15-S1, 30 minutes
  half maximal effective concentration (EC50): low nanomolar range
OMA1 protease [5]; reporter #15-TEV, 30 minutes
  half maximal effective concentration (EC50): low nanomolar range
L-OPA1; 0.1 μM (100 nM) valinomycin
  OPA1 hydrolysis in Western blots: sufficed for OPA1 cleavage; also recorded: complete L-OPA1 proteolysis
OMA1 protease [6]; Luke-TEV, 100 nM valinomycin added with luciferase substrate
  real-time bioluminescence versus cells without valinomycin: much smaller difference
OMA1 protease [6]; dose-response, 30 minutes
  effect on Luke-TEV signal: only a minor signal reduction
OMA1 protease [2]
  Luke-S1 reporter cleavage in Western blots: induced cleavage of the Luke-S1 reporter
  Luke-TEV reporter cleavage in Western blots: cleaved
